Results published in US20070213359A1 (ACADIA Pharmaceuticals Inc., priority 2005, published 2007).
Like-named read-outs stand apart in the source and are kept apart here.

Target: Ghrelin receptor (Homo sapiens, UniProt Q92847)
Assay: Receptor Selection and Amplification Technology (R-SAT) assay
Assay type: cell-based
Design: expressed in transfected cells; host or cells: NIH3T3
Settings: for IC50: negative logarithm of ligand concentration causing 50% inhibition of constitutive receptor response, transfected NIH3T3 cells, '—' not defined (nd used separately), read-out: RSAT pIC50 (converted); for Emax: read-out: RSAT Eff(%)
[1] = percent inhibition at saturating ligand, normalized to reference ligand Substance P analog = 100%

Ghrelin receptor, sequence (Q92847 whole entry): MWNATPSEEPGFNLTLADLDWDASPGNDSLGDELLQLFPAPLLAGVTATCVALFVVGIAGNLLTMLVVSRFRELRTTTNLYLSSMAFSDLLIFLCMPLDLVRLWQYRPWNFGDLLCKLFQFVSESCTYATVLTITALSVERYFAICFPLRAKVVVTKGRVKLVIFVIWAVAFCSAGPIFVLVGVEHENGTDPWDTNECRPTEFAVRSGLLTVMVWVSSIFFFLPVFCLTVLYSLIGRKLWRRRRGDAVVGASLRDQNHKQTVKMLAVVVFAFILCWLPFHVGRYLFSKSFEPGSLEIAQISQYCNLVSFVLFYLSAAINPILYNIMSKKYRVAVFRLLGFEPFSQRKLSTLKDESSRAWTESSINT

IC50 [µM] | Emax [1] [%] | SMILES | Emax [%]
3.98 | 121 | CC(=O)c1cn(CC(C)CN2CCC(Cc3ccccc3)CC2)c2ccccc12 (stereo not shown) | –
3.98 | 86 | CC(=O)c1cn(CCCCN2CCC(Cc3ccccc3)CC2)c2ccccc12 | –
5.01 | 78 | COc1ccccc1C1CCN(CCCn2cc(CCC(C)=O)c3ccccc32)CC1 | –
5.01 | 67 | CC(=O)c1cn(CCCN2CCC(Oc3ccccc3Cl)CC2)c2cc(Br)ccc12 | –
5.01 | 64 | CC(=O)c1cn(CCCN2CCC(C(=O)c3ccccc3)CC2)c2ccccc12 | –
6.31 | 112 | O=C(c1cn(CCCN2CCC(Cc3ccccc3)CC2)c2ccccc12)C(F)(F)F | –
6.31 | 26 | CC(=O)c1cn(CC(O)CN2CCC(C(=O)c3ccccc3)CC2)c2ccccc12 (stereo not shown) | –
6.31 | 96 | CC(=O)c1cn(CCCNC2Cc3ccccc3C2)c2c(Cl)cccc12 | –
6.31 | 39 | CCOC(=O)C1CCN(CCCn2cc(C(=O)CC)c3ccccc32)CC1 | –
10 | 71 | COc1cccc2c(C(C)=O)cn(CCCN3CCC(S(=O)(=O)c4ccc(Cl)cc4)CC3)c12 | –
10 | 74 | CC(=O)c1cn(CCCN2C3CCC2CC(Oc2ccc(Cl)cc2)C3)c2cc(Br)ccc12 (stereo not shown) | –
10 | 60 | CC(=O)c1cn(CCCN2CCC(C(=O)c3ccccc3)CC2)c2ccc(Br)cc12 | –
15.8 | 75 | CCCOC1CCN(CCCn2cc(CCC(C)=O)c3ccccc32)CC1 | –
15.8 | 53 | CCC(=O)c1cn(CCCN2CCC(C(=O)c3ccccc3)CC2)c2ccccc12 | –
15.8 | 64 | COc1ccccc1C1CCN(CC(C)Cn2cc(C(C)=O)c3ccccc32)CC1 (stereo not shown) | –
15.8 | 74 | CC(=O)c1cn(CCCN2CCC(Oc3ccccc3Cl)CC2)c2ccc(Br)cc12 | –
20 | 55 | CC(=O)c1cn(CCCN2CCC(c3nc(-c4cccnc4)no3)CC2)c2ncccc12 | –
31.6 | 18 | CCCOC1CCN(CC(O)Cn2cc(C(C)=O)c3ccccc32)CC1 (stereo not shown) | –
31.6 | 74 | COc1ccc2c(c1)c(C(C)=O)cn2CCCN1C2CCC1CC(OCC1CC1)C2 (stereo not shown) | –
251 | 58 | O=C(c1cn(CCCN2C3CCC2CC(O)(c2ccc(F)cc2)C3)c2ccccc12)C(F)(F)F (stereo not shown) | –
1580 | 92 | CC(=O)c1cn(CCCN2CCC(C(=O)c3ccccc3)CC2)c2c(Cl)cccc12 | –
– | 40 | COc1cccc2c(C#N)cn(CCCN3CCC(c4nc(-c5ccncc5)no4)CC3)c12 | –

IC50 [µM] | Emax [1] [%] | SMILES | Emax [%]
– | – | CC(=O)c1c(C)n(CCCN2CCCC(Oc3ccc(Cl)cc3)C2)c2c(Br)cccc12 (stereo not shown) | 24
– | – | CC(=O)c1c(C)n(CCCN2CCCC(Cc3ccccc3Cl)C2)c2c(Br)cccc12 (stereo not shown) | 5
– | – | CC(=O)c1c(C)n(CCCN2CCC(Cc3ccccc3Cl)C2)c2c(Br)cccc12 (stereo not shown) | 38
– | – | COc1cccc2c(C(C)=O)cn(CC(C)CN3CCCC(Oc4ccc(Cl)cc4)C3)c12 (stereo not shown) | -1
– | – | COc1cccc2c(C(C)=O)cn(CC(C)CN3C4CCC3CC(Oc3ccc(F)cc3)C4)c12 (stereo not shown) | 44
– | – | COc1cccc2c(C(C)=O)cn(CC(C)CN3CCC(CCOc4ccc(Cl)cc4)CC3)c12 (stereo not shown) | 22
– | 27 | O=C(c1cn(CCCN2CCCC(Cc3ccccc3Cl)C2)c2ncccc12)C(F)(F)F (stereo not shown) | –
– | 23 | O=C(c1cn(CCCN2CCC(Oc3cccc(Cl)c3)CC2)c2ncccc12)C(F)(F)F | –
– | 53 | CC(=O)c1cn(CCCN2CCCC(Oc3ccc(Cl)cc3)C2)c2ncccc12 (stereo not shown) | –
– | 48 | COc1cccc2c(C#N)cn(CCCN3CCCC(Oc4ccc(Cl)cc4)C3)c12 (stereo not shown) | –
– | – | CC(=O)c1cn(CCCN2CCCC(Oc3ccc(Cl)cc3)C2)c2c(C#N)cccc12 (stereo not shown) | 31
– | – | CC(=O)c1cn(CCCN2C3CCC2CC(CC(=O)c2ccc(Cl)cc2)C3)c2c(C#N)cccc12 (stereo not shown) | 31
– | – | CCCCC1CCN(CCn2cc(C(C)=O)c3ccccc32)CC1 | 23
– | -10 | COc1ccc2[nH]c3c(c2c1)CCN(CC(C)Cn1c(=O)sc2ccccc21)C3 (stereo not shown) | –
– | – | CC(=O)c1cn(CC(C)CN2CCC(C(=O)c3ccccc3)CC2)c2ccccc12 (stereo not shown) | 2
– | – | CC(=O)c1cn(CCCCN2CCC(C(=O)c3ccccc3)CC2)c2ccccc12 | 38
– | – | CC(=O)c1cn(CCCCN2CCC(Oc3ccc(F)cc3)CC2)c2ccccc12 | 41
– | – | CC(=O)c1cn(CC(O)CN2CCN(C(C)c3ccccc3)CC2)c2ccccc12 (stereo not shown) | 23
– | – | CC(=O)c1cn(CC(C)CN2CCC(O)(Cc3ccccc3)CC2)c2ccccc12 (stereo not shown) | -3
– | – | CC(=O)c1cn(CCCCN2CCC(O)(Cc3ccccc3)CC2)c2ccccc12 | 24
– | – | CC(=O)c1cn(CCCCN2C3CCC2CC(O)(c2ccc(F)cc2)C3)c2ccccc12 (stereo not shown) | 2
– | – | CCC(=O)c1cn(CCCN2C3CCC2CC(O)(c2ccc(F)cc2)C3)c2ccccc12 (stereo not shown) | 18

IC50 [µM] | Emax [1] [%] | SMILES | Emax [%]
– | – | O=C(c1cn(CCCN2CCC(S(=O)(=O)c3ccc(Cl)cc3)CC2)c2ccccc12)C(F)(F)F | 6
– | – | CCC(=O)c1cn(CCCN2CCC(S(=O)(=O)c3ccc(Cl)cc3)CC2)c2ccccc12 | 1
– | – | CCN(CC)C(=O)C1CCCN(CCCn2cc(C(C)=O)c3cccc(OC)c32)C1 (stereo not shown) | 16
– | – | COc1cccc2c(C(C)=O)cn(CCCN3C4CCC3CC(O)(c3ccc(F)cc3)C4)c12 (stereo not shown) | 3
– | 21 | COc1cccc2c(C#N)cn(CCCN3CCN(CCOc4ccc(Cl)c5ccccc45)CC3)c12 | –
– | – | CC(=O)c1cn(CCCN2CCC(CCOc3ccc(Cl)cc3)CC2)c2c(Cl)cccc12 | 53
– | – | CC(=O)c1cn(CCCN2CCN(CCOc3ccc(Cl)cc3)CC2)c2c(C)cccc12 | 53
– | – | CC(=O)c1cn(CCCN2CCN(CCOc3ccc(Cl)cc3)CC2)c2c(Br)cccc12 | 12
– | – | COc1cccc2c(C(=O)C3CC3)cn(CCCN3CCN(CCOc4ccc(Cl)c5ccccc45)CC3)c12 | 44
– | – | CC(=O)c1cn(CCCN2CCN(CCOc3ccc(Cl)cc3)CC2)c2c(Cl)cccc12 | 32
– | – | COc1cccc2c(C(=O)NCc3cccc(C)c3)cn(CCCN3CCN(CCOc4ccc(Cl)c5ccccc45)CC3)c12 | 2
– | – | COc1cccc2c(C(=O)NCc3cccc(Cl)c3)cn(CCCN3CCN(CCOc4ccc(Cl)c5ccccc45)CC3)c12 | 59
– | – | CC(=O)c1c(C)n(CCCN2CCC3(CC2)CC(=O)c2ccccc2O3)c2c(Br)cccc12 | 8
– | – | CCc1cccc2c(C(C)=O)cn(CCCN3CCCC(Oc4ccc(Cl)cc4)C3)c12 (stereo not shown) | 13
– | – | COc1cccc2c(C(C)=O)cn(CC(C)CN3CCC4(CC3)CC(=O)c3ccccc3O4)c12 (stereo not shown) | 55
– | 26 | CC(CN1CCC2(CC1)CC(=O)c1ccccc1O2)Cn1cc(C(=O)C(F)(F)F)c2cccnc21 (stereo not shown) | –
– | 2 | O=C(c1cn(CCCN2CCCC(Oc3ccc(Cl)cc3)C2)c2ncccc12)C(F)(F)F (stereo not shown) | –
– | 37 | O=C(c1cn(CCCN2CCC(CCOc3ccc(Cl)cc3)CC2)c2ncccc12)C(F)(F)F | –
– | 41 | COc1cccc2c(C#N)cn(CCCN3CCC4(CC3)CC(=O)c3ccccc3O4)c12 | –
– | -3 | COc1cccc2c(C#N)cn(CCCN3CCC(CCOc4ccc(Cl)cc4)CC3)c12 | –
– | – | CC(=O)c1cn(CCCN2CCC(CCOc3ccc(Cl)cc3)CC2)c2c(C#N)cccc12 | 27
– | – | CC(=O)c1c(C)n(CCCN2CCN(CCOc3ccc(Cl)cc3)CC2)c2c(Br)cccc12 | -13

IC50 [µM] | Emax [1] [%] | SMILES | Emax [%]
– | – | CC(=O)c1c(C)n(CCCN2CCC(c3nc(-c4ccncc4)no3)CC2)c2c(Br)cccc12 | 25
– | – | CC(=O)c1c(C)n(CCCN2CCC(c3nc(-c4cccnc4)no3)CC2)c2c(Br)cccc12 | 12
– | – | CCc1cccc2c(C(C)=O)cn(CCCN3CCN(CCOc4ccc(Cl)cc4)CC3)c12 | 24
– | – | CCc1cccc2c(C(C)=O)cn(CCCN3CCC(c4nc(-c5cccnc5)no4)CC3)c12 | 61
– | – | COc1cccc2c(C(C)=O)cn(CC(C)CNCCOc3ccccc3)c12 (stereo not shown) | 29
– | – | COc1cccc2c(C(C)=O)cn(CC(C)CN3CCN(CCOc4ccccc4)CC3)c12 (stereo not shown) | -7
– | – | COc1cccc2c(C(C)=O)cn(CC(C)CN3CCCN(CCc4ccccc4)CC3)c12 (stereo not shown) | 31
– | – | COc1cccc2c(C(C)=O)cn(CC(C)CN3CCC(c4nc(-c5ccncc5)no4)CC3)c12 (stereo not shown) | 78
– | -3 | O=C(c1cn(CCCNC2Cc3ccccc3C2)c2ncccc12)C(F)(F)F | –
– | 27 | O=C(c1cn(CCCN2CCN(c3ncc(C(F)(F)F)cc3Cl)CC2)c2ncccc12)C(F)(F)F | –
– | 38 | O=C(c1cn(CCCN2CCN(CCOc3ccc(Cl)cc3)CC2)c2ncccc12)C(F)(F)F | –
– | 26 | O=C(c1cn(CCCNCCOc2ccccc2)c2ncccc12)C(F)(F)F | –
– | 51 | O=C(c1cn(CCCN2CCCN(CCc3ccccc3)CC2)c2ncccc12)C(F)(F)F | –
– | 31 | O=C(c1cn(CCCN2CCC(c3nc(-c4ccncc4)no3)CC2)c2ncccc12)C(F)(F)F | –
– | 72 | O=C(c1cn(CCCN2CCC(c3nc(-c4cccnc4)no3)CC2)c2ncccc12)C(F)(F)F | –
– | 62 | CC(=O)c1cn(CCCN2CCN(CCOc3ccc(Cl)cc3)CC2)c2ncccc12 | –
– | 88 | CC(=O)c1cn(CCCN2CCC(c3nc(-c4ccncc4)no3)CC2)c2ncccc12 | –
– | -23 | COc1cccc2c(C#N)cn(CCCN3CCN(CCOc4ccc(Cl)cc4)CC3)c12 | –
– | 42 | COc1cccc2c(C#N)cn(CCCN3CCN(CCOc4ccccc4)CC3)c12 | –
– | 30 | COc1cccc2c(C#N)cn(CCCN3CCN(Cc4ccc(Cl)cc4Cl)CC3)c12 | –
– | 23 | COc1cccc2c(C#N)cn(CCCN3CCC(c4nc(-c5cccnc5)no4)CC3)c12 | –
– | 27 | O=C(c1cn(CCCN2CCN(CCOc3ccccc3)CC2)c2ncccc12)C(F)(F)F | –

SMILES | IC50 [µM] | Emax [1] [%] | Emax [%]
CC(CN1C2CCC1CC(Oc1ccc(F)cc1)C2)Cn1cc(C(=O)C(F)(F)F)c2cccnc21 (stereo not shown) | – | 35 | –
COc1ccc2[nH]c3c(c2c1)CCN(CCCCn1cc(C(C)=O)c2ccccc21)C3 | – | 9 | –
CC(=O)c1cn(CCCN2C3CCC2CC(CC(=O)c2ccc(Cl)cc2)C3)c2ncccc12 (stereo not shown) | – | 11 | –
